# Reference: patent publication US7595401B2, “Therapeutic compounds and their use in cancer” (Myriad Pharmaceuticals, Inc., priority 2006, dated 2009)
# pIC50: −log10 of the molar value.
# System: purified human Hsp90
# Test: Binding Assay: fluorescence polarization with BODIPY-labeled geldanamycin
# Conditions: BODIPY-GM 10 nM, Hsp90 30 nM
# How it was run: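 Compounds in 2% DMSO final compete with 10 nM BODIPY-GM for 30 nM purified human Hsp90, incubated overnight at room temperature in pH 7.3 HEPES buffer containing Na2MoO4 and DTT. Polarization (mP, ex/em 485/530) normalized to DMSO gives percent inhibition; autofluorescence-confounded data excluded.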
Structure (SMILES),% Inhibition at 5 μM Compound Concentration [%],pIC50
"CC(=O)c1ccc(CCn2c(Sc3cc4c(cc3Br)OCO4)nc3c(N)ncnc32)cc1 [Example 159, 1-(4-{2-[6-Amino-8-(6-bromo-benzo[1,3]dioxol-5-ylsulfanyl)-purin-9-yl]-ethyl}-phenyl)-ethanone]",63,6.10
"Nc1ncn(CCc2ccccc2)c2nc(Sc3ccc4c(c3)OC(F)(F)O4)nc1-2 [Example 293, 8-[(2,2-Difluoro-1,3-benzodioxol-5-yl)thio]-3-(2-phenylethyl)-3H-purin-6-amine]",0.0,–
"CC1(C)CNCCC1CCn1c(Sc2cc3c(cc2Br)OCO3)nc2c(N)ncnc21 (stereo not drawn) [Example 472, 8-[(6-Bromo-1,3-benzodioxol-5-yl)thio]-9-[2-(3,3-dimethylpiperidin-4-yl)ethyl]-9 H-purin-6-amine]",–,7.15
"COc1ccc(OC)c(Sc2nc3c(N)ncn(CCN4CCN(C(C)=O)CC4)c-3n2)c1 [Example 630, 3-[2-(4-Acetylpiperazin-1-yl)ethyl]-8-[(2,5-dimethoxyphenyl)thio]-3 H-purin-6-amine]",–,5.05
"COc1ccc(OC)c(Sc2nc3c(N)ncnc3n2CCc2ccncc2)c1 [Example 134, 8-(2,5-Dimethoxy-phenylsulfanyl)-9-(2-pyridin-4-yl-ethyl)-9H-purin-6-ylamine]",–,< 5.52
"Cc1cc(C)c(CCn2cnc(N)c3nc(Sc4cc5c(cc4Br)OCO5)nc2-3)c(C)c1 [Example 94, 8-(6-bromo-benzo[1,3]dioxol-5-ylsulfanyl)-3-[2-(2,4,6-trimethyl-phenyl)-ethyl]-3H-purin-6-ylamine]",0,–
"COc1ccccc1CCn1c(Sc2cc3c(cc2Br)OCO3)nc2c(N)ncnc21 [Example 287, 8-[(6-Bromo-1,3-benzodioxol-5-yl)thio]-9-[2-(2-methoxyphenyl)ethyl]-9H-purin-6-amine]",–,7.22
"COc1ccc(OC)c(Sc2nc3c(N)ncn(CCc4ccccc4OC)c-3n2)c1 [Example 86, 8-(2,5-dimethoxy-phenylsulfanyl)-3-[2-(2-methoxy-phenyl)-ethyl]-3H-purin-6-ylamine]",–,< 5.30
"Cc1cc(C)c(CCn2c(Sc3cc4c(cc3Br)OCO4)nc3c(N)ncnc32)c(C)c1 [Example 93, 8-(6-Bromo-benzo[1,3]dioxol-5-ylsulfanyl)-9-[2-(2,4,6-trimethyl-phenyl)-ethyl]-9H-purin-6-ylamine]",–,6.72
"CN1C2CCC1CC(CCn1cnc(N)c3nc(Sc4cc5c(cc4Br)OCO5)nc1-3)C2 (stereo not drawn) [Example 427, 8-[(6-Bromo-1,3-benzodioxol-5-yl)thio]-3-{2-[(3-endo)-8-methyl-8-azabicyclo[3.2.1]oct-3-yl]ethyl}-3H-purin-6-amine]",32,–
"CC(C)(C)OC(=O)N1CCC(=CCn2c(Sc3cc4c(cc3Br)OCO4)nc3c(N)ncnc32)CC1 [Example 390, tert-Butyl 4-(2-{6-amino-8-[(6-bromo-1,3-benzodioxol-5-yl)thio]-9H-purin-9-yl}ethylidene)piperidine-1-carboxylate]",–,6.51
"COc1cc(Sc2nc3c(N)ncn(CCCc4ccccc4)c-3n2)cc(OC)c1OC [Example 48, 3-(3-phenyl-propyl)-8-(3,4,5-trimethoxy-phenylsulfanyl)-3H-purin-6-ylamine]",–,< 5.00
"Nc1ncn(CCC2CCCCC2)c2nc(Sc3cc4c(cc3Br)OCO4)nc1-2 [Example 174, 8-(6-bromo-benzo[1,3]dioxol-5-ylsulfanyl)-3-(2-cyclohexyl-ethyl)-3H-purin-6-ylamine]",37,< 4.60
"COc1cc(C#N)c(Sc2nc3c(N)ncn(CCC4CCN(C(C)=O)CC4)c-3n2)cc1OC [Example 623, 2-({3-[2-(1-Acetylpiperidin-4-yl)ethyl]-6-amino-3 H-purin-8-yl}thio)-4,5-dimethoxybenzonitrile]",–,< 5.40
"CC1(C(=O)N2CCC(CCn3c(Sc4cc5c(cc4Br)OCO5)nc4c(N)ncnc43)CC2)CC1 [Example 516, 8-[(6-Bromo-1,3-benzodioxol-5-yl)thio]-9-(2-{1-[(1-methylcyclopropyl)carbonyl]piperidin-4-yl}ethyl)-9 H-purin-6-amine]",–,6.22
"COC(=O)CCCNC(=O)N1CCCC(CCn2c(Sc3cc4c(cc3Br)OCO4)nc3c(N)ncnc32)C1 (stereo not drawn) [Example 503, Methyl 4-({[3-(2-{6-amino-8-[(6-bromo-1,3-benzodioxol-5-yl)thio]-9 H-purin-9-yl}ethyl)piperidin-1-yl]carbonyl}amino)butanoate]",–,6.72
"CC(C)(C)OC(=O)N1CCC[C@@H](CCn2c(Sc3cc4c(cc3Br)OCO4)nc3c(N)ncnc32)C1 [Example 391, tert-Butyl (3S)-3-(2-{6-amino-8-[(6-bromo-1,3-benzodioxol-5-yl)thio]-9H-purin-9-yl}ethyl)piperidine-1-carboxylate]",–,5.92
"COc1cc(CCn2c(Sc3cc(OC)ccc3OC)nc3c(N)ncnc32)cc(OC)c1 [Example 193, 9-[2-(3,5-dimethoxy-phenyl)-ethyl]-8-(2,5-dimethoxy-phenylsulfanyl)-9H-purin-6-ylamine]",39,6.51
"COc1ccc(OC)c(Sc2nc3c(N)ncnc3n2CCc2ccccc2C(F)(F)F)c1 [Example 183, 8-(2,5-Dimethoxy-phenylsulfanyl)-9-[2-(2-trifluoromethyl-phenyl)-ethyl]-9H-purin-6-ylamine]",100,5.96
"COc1cccc(Sc2nc3c(N)ncn(CCc4ccccc4)c-3n2)c1 [Example 288, 8-[(3-Methoxyphenyl)thio]-3-(2-phenylethyl)-3H-purin-6-amine]",–,5.40
"N#Cc1cc2c(cc1Sc1nc3c(N)ncn(CCc4ccccc4)c-3n1)OCO2 [Example 321, 6-{[6-Amino-3-(2-phenylethyl)-3H-purin-8-yl]thio}-1,3-benzodioxole-5-carbonitrile]",49.0,–
"Nc1ncnc2c1nc(Sc1cc3c(cc1Br)OCO3)n2CCc1ccccc1F [Example 147, 8-(6-Bromo-1,3-benzodioxol-5-ylsulfanyl)-9-[2-(2-fluoro-phenyl)-ethyl]-9H-purin-6-ylamine]",–,7.36
"CC(C)(C)C(=O)N1CCN(CCn2c(Sc3cc4c(cc3Br)OCO4)nc3c(N)ncnc32)CC1 [Example 633, 8-[(6-Bromo-1,3-benzodioxol-5-yl)thio]-9-{2-[4-(2,2-dimethylpropanoyl)piperazin-1-yl]ethyl}-9 H-purin-6-amine]",–,5.82
"CC(C)(NCCn1cnc(N)c2nc(Sc3cc4c(cc3Br)OCO4)nc1-2)c1ccccn1 [Example 333, 8-[(6-Bromo-1,3-benzodioxol-5-yl)thio]-3-{2-[(1-methyl-1-pyridin-2-ylethyl)amino]ethyl}-3H-purin-6-amine]",43.0,–
"CCOP(=O)(OCC)N1CCCCC1CCn1c(Sc2cc3c(cc2Br)OCO3)nc2c(N)ncnc21 (stereo not drawn) [Example 643, Diethyl [2-(2-{6-amino-8-[(6-bromo-1,3-benzodioxol-5-yl)thio]-9 H-purin-9-yl}ethyl)piperidin-1-yl]phosphonate]",–,5.30
"Nc1ncn(CCc2ccccc2)c2nc(Sc3cc4c(cc3Br)OCO4)nc1-2 [Example 14, 8-(6-bromo-benzo[1,3]dioxol-5-ylsulfanyl)-3-phenethyl-3H-purin-6-ylamine]",–,5.30
